In patent publication US10738041B2, “Ferroportin inhibitors” (Vifor (International) AG, priority 2015, dated 2020):

Assays:
[1] = biological target: T1, human Fpn (Homo sapiens, UniProt Q9NP59); test: Biophysical Ferroportin-Hepcidin Binding Assay (fluorescence polarization); details: average of multiple measurements; 1 μM human Fpn, 20 nM TMR-hepcidin; read-out: FP IC50
T1 construct: FLAG (C); made in house; host or cells: Pichia pastoris
T1 sequence (Q9NP59 1-571): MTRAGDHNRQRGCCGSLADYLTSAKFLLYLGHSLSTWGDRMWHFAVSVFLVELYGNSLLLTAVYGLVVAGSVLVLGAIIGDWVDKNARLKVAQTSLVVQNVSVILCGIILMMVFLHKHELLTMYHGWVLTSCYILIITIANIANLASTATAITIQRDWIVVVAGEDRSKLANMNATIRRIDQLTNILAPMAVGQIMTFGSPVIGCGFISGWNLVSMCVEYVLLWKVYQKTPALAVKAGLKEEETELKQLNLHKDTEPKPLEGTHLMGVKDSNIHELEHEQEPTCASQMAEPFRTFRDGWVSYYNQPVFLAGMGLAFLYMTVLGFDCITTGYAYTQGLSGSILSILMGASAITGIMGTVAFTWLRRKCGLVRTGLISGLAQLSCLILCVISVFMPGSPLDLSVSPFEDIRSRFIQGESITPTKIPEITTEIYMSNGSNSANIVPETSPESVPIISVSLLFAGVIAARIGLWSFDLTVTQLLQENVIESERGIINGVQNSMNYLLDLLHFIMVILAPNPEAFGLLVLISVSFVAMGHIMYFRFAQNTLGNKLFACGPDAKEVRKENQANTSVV
Method: This biophysical assay was developed to confirm inhibition of hepcidin binding to ferroportin (Fpn) more directly. Incubation of TMR-hepcidin with purified human Fpn isolated from Pichia pastoris yeast cells expressing human Fpn with a C-terminal FLAG affinity tag (Bonaccorsi di Patti, 2014) leads to increased fluorescence polarization (FP) of the TMR-hepcidin ligand. Small molecular weight Fpn inhibitors were tested for inhibition of binding of TMR-hepcidin to Fpn, as detected by dose-dependent decrease of the TMR FP signal, as described in detail below.
8 μl of serial dilutions of test compounds were added in duplicates to reach final Fpn and TMR-hepcidin concentrations of 1 μM and 20 nM, respectively. Plates were incubated for 90 minutes at room temperature and parallel (S) and perpendicular (P) fluorescence was measured in a Synergy H1 fluorescence reader (BioTek). FP values were calculated in mP according to the following formula.

[2] = biological target: T2, ferroportin (Fpn) (Mus musculus, UniProt Q9JHI9); test: Hepcidin Internalization Assay (J774); format: cell-based; details: average of multiple measurements; inhibition of TMR-hepcidin (25 nM) internalization into J774 cells; read-out: J774 IC50
T2 construct: host or cells: J774 mouse macrophage cell line, Fe(III)-NTA induced
T2 sequence (Q9JHI9 1-570): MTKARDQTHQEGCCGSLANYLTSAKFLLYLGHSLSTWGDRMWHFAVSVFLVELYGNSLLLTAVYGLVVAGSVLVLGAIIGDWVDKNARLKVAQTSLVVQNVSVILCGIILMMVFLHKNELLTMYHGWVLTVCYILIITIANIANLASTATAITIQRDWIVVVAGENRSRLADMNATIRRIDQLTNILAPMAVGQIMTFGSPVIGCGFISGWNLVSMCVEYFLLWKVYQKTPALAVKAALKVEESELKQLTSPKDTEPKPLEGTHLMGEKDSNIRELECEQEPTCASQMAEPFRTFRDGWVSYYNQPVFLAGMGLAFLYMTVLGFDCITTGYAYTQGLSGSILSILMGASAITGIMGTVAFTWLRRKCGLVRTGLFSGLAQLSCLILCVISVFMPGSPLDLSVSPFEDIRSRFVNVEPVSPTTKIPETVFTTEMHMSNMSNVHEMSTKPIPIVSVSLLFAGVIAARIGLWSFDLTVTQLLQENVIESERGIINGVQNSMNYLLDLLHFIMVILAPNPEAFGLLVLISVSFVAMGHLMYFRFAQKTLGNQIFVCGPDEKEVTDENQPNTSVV
Excerpt: This cellular assay allows quantification of the binding of hepcidin to ferroportin (Fpn) through microscopic detection of internalization of a fluorescently labeled hepcidin into J774 cells. […] Binding of hepcidin to Fpn triggers internalization and degradation of both hepcidin and Fpn. However, the TMR (6-carboxytetramethylrhodamine) fluorophore attached to hepcidin remains associated with the cell after degradation of the hepcidin peptide backbone. Therefore, microscopic detection of ceH associated TMR fluorescence is a measure of hepcidin binding to Fpn and internalization of hepcidin and Fpn. If TMR-hepcidin is prevented from binding to Fpn, cellular TMR fluorescence remains low (Dürrenberger et al, 2013). The effect of small molecular weight Fpn inhibitor compounds in this assay was evaluated in vitro as described below.
J774 cells, harvested from ca. 80% confluent cultures, were plated at 8×10^5 cells/ml in complete medium (DMEM, 10% FBS, 1% Penicillin-Streptomycin) containing 200 μM Fe(III)NTA (nitrilotriacetic acid), 100 μl per well of 96 well MicroClear plates (Greiner; Cat. 655090) and grown at 37° C. with 5% CO2. After overnight incubation, cells were washed 3 times with pre-warmed DMEM w/o phenol red, 30 μl/well of DMEM w/o phenol red was added after the final wash and 10 μl/well of dilution series of test compounds were added in triplicates. […] Cells were incubated in a total volume of 50 μl at 37° C. with 5% CO2 for 2 hours, then Hoechst 33342 dye was added to a final concentration of 0.5 μg/ml to stain nuclei and further incubated for 10 min. at 37° C. with 5% CO2. Cells were washed 3 times with PBS and fixed in 100 μl of 4% paraformaldehyde in PBS for 15 min. at room temperature. After removal of the paraformaldehyde solution, cells were washed 3 times with PBS leaving 100 μl per well and the plates were sealed with foil plate seal. TMR (530-550 nm excitation/575-625 nm emission/400 ms exposure time) and Hoechst 33342 (360-370 nm excitation/420-460 nm emission/10 ms exposure time) fluorescence images were acquired using a ScanR plate imager (Olympus) with a 20× high NA objective. Four pictures were acquired per well and fluorescence channel covering ca. 1500 cells per well. The acquired image data was analysed with the ScanR image analysis software. Image analysis included detection of nuclei (Hoechst 33342 fluorescence), identification of cell-associated regions, application of a virtual channel and thresholding for rolling-ball-type background reduction, followed by application of the Sum(Mean) algorithm to measure the TMR fluorescence associated with cells as a quantitative measure for internalized TMR-hepcidin. IC50 values were calculated with the Sum(Mean) raw data using “log(inhibitor) vs. response” curve fitting of Prism 5 software (GraphPad Software Inc., version 5.02).

Compound | IC50 [1] | IC50 [2]
O=C(NCc1ccccc1)c1csc(CCNCc2ccc(F)cn2)n1 [Example 6] | 48600 nM | 12700 nM
O=C(NCc1ccccc1)c1csc(CCNCc2ccccn2)n1 [Example 11] | 7830 nM | 20900 nM
O=C(NCc1cccs1)c1csc(CCNCc2nc3ccccc3[nH]2)n1 [Example 16] | 1720 nM | 900 nM
CN(Cc1ccccc1)C(=O)c1csc(CCNCc2nc3ccccc3[nH]2)n1 [Example 17] | 3530 nM | 6400 nM
CN(C(=O)c1csc(CCNCc2nc3ccccc3[nH]2)n1)c1ccccc1 [Example 19] | 10200 nM | 10000 nM
O=C(NCc1ccccc1)c1csc(CCNCc2ncc[nH]2)n1 [Example 20] | 9610 nM | 9400 nM
O=C(NCc1cccc(N2CCCC2)c1)c1csc(CCNCc2nc3ccccc3[nH]2)n1 [Example 21] | 1430 nM | 6700 nM
CN(C)C(=O)c1csc(CCNCc2nc3ccccc3[nH]2)n1 [Example 22] | 14200 nM | 17200 nM
CC(C)N(C(=O)c1csc(CCNCc2nc3ccccc3[nH]2)n1)C1CCCCC1 [Example 25] | 3930 nM | 2200 nM
CC(C)(NC(=O)c1csc(CCNCc2nc3ccccc3[nH]2)n1)c1ccccc1 [Example 26] | 1120 nM | 700 nM
Cn1c(CNCCc2nc(C(=O)NCc3ccccc3)cs2)nc2ccccc21 [Example 28] | 1220 nM | 180 nM
O=C(NCc1ccccc1)c1csc(CCNCc2nc3cc(O)ccc3[nH]2)n1 [Example 30] | 2330 nM | 12900 nM
O=C(NCc1ccccc1)c1csc(CCNCc2nc3cc(F)ccc3[nH]2)n1 [Example 31] | 940 nM | 1100 nM
O=C(NCc1ccccc1)c1csc(CCNCc2nc3cccnc3[nH]2)n1 [Example 33] | 17200 nM | 3620 nM
O=C(NCc1ccccc1)c1csc(CCNCc2cn3ccccc3n2)n1 [Example 34] | 4290 nM | 360 nM
O=C(NCc1cccnc1)c1csc(CCNCc2nc3ccccc3[nH]2)n1 [Example 35] | 2160 nM | 190 nM
O=C(NCc1ccncc1)c1csc(CCNCc2nc3ccccc3[nH]2)n1 [Example 36] | 3650 nM | 250 nM
CN1CCOCC1CNC(=O)c1csc(CCNCc2nc3ccccc3[nH]2)n1 (centres unmarked) [Example 41] | 12000 nM | 3980 nM
COc1ccc(CNC(=O)c2csc(CCNCc3nc4ccccc4[nH]3)n2)nc1 [Example 45] | 2100 nM | 440 nM
O=C(NCc1cccc(=O)[nH]1)c1csc(CCNCc2nc3ccccc3[nH]2)n1 [Example 47] | 3420 nM | 720 nM
COc1ccc2[nH]c(CNCCc3nc(C(=O)NCc4ccccc4)cs3)nc2c1 [Example 50] | 1480 nM | 410 nM

Compound | IC50 [1] | IC50 [2]
NC(=O)c1ccc(CNC(=O)c2csc(CCNCc3nc4ccccc4[nH]3)n2)cn1 [Example 54] | 11400 nM | 460 nM
O=C(NCc1nc2ccccc2[nH]1)c1csc(CCNCc2nc3ccccc3[nH]2)n1 [Example 60] | 974 nM | 2390 nM
O=C(NCc1ccccc1)c1csc(CCNCc2nc3cc(OC(F)(F)F)ccc3[nH]2)n1 [Example 62] | 436 nM | 930 nM
O=C(NCc1ccccc1N1CCOCC1)c1csc(CCNCc2nc3ccccc3[nH]2)n1 [Example 63] | 846 nM | 610 nM
O=C(NCc1ccccc1)c1ccc(CCNCc2nc3ccccc3[nH]2)cc1 [Example 66] | 53800 nM | 410 nM
O=C(NCc1c(F)cccc1F)c1csc(CCNCc2nc3ccccc3[nH]2)n1 [Example 69] | 1510 nM | 260 nM
CN(C)c1ccccc1CNC(=O)c1csc(CCNCc2nc3ccccc3[nH]2)n1 [Example 70] | 1060 nM | 530 nM
O=C(NCc1ccccc1OC(F)(F)F)c1csc(CCNCc2nc3ccccc3[nH]2)n1 [Example 72] | 931 nM | 1360 nM
CC(NC(=O)c1csc(CCNCc2nc3ccccc3[nH]2)n1)c1ccccc1 (centres unmarked) [Example 73] | 1000 nM | 370 nM
O=C(NCc1ccccc1OC(F)F)c1csc(CCNCc2nc3ccccc3[nH]2)n1 [Example 74] | 451 nM | 210 nM
O=C(NCCc1ccccn1)c1csc(CCNCc2nc3ccccc3[nH]2)n1 [Example 76] | 5080 nM | 340 nM
O=C(Nc1ncccc1F)c1csc(CCNCc2nc3ccccc3[nH]2)n1 [Example 77] | 2810 nM | 350 nM
O=C(NCCc1ccccc1)c1csc(CCNCc2nc3ccccc3[nH]2)n1 [Example 78] | 4150 nM | 410 nM
CC(NC(=O)c1csc(CCNCc2nc3ccccc3[nH]2)n1)c1ccccn1 (centres unmarked) [Example 80] | 2280 nM | 345 nM
O=C(NCc1ccc(C(F)(F)F)nc1)c1csc(CCNCc2nc3ccccc3[nH]2)n1 [Example 81] | 2970 nM | 420 nM
O=C(NCc1ccc[nH]c1=O)c1csc(CCNCc2nc3ccccc3[nH]2)n1 [Example 83] | 1050 nM | 96 nM
Cn1cc(CNC(=O)c2csc(CCNCc3nc4ccccc4[nH]3)n2)cn1 [Example 91] | 12100 nM | 2070 nM
O=C(NCc1ncc[nH]1)c1csc(CCNCc2nc3ccccc3[nH]2)n1 [Example 95] | 13000 nM | 7230 nM
O=C(NCc1ncccc1F)c1cnn(C2CCN(Cc3nc4ccccc4[nH]3)CC2)c1 [Example 150] | 73000 nM | 
O=C(NCc1ncccc1F)c1cnn(CC2CCCN(Cc3nc4ccccc4[nH]3)C2)c1 (centres unmarked) [Example 153] | 57800 nM | 
